Like-named read-outs stand apart in the source and are kept apart here.
Assays:
mouse ear = assay: ear swelling induced by application of CB2 agonist or arachidonic acid; type: in vivo
Procedure: Therefore, 2-arachidonoylglycerol ether (2-AG-E), the stable form of an endogenous ligand candidate 2-arachidonoylglycerol, and a specific CB2 agonist HU-308 were examined whether they directly induce ear swelling and compared to the ear swelling induced by arachidonic acid (AA).
Synthetically produced 2-AG-E and HU-308 were prepared with acetone to 1 or 10% (w/v) and 10% (w/v), respectively, and AA (Sigma) was prepared with acetone to 1.25% (w/v), on needed basis. 10 μL each of these substances was applied on each side of the left ear.

CB2 [1] = molecular target: T1, CB2 (Homo sapiens, UniProt P34972); assay: cAMP production in forskolin-stimulated hCB2-expressing CHO cells; type: cell-based; parameters: expressed in transfected cells; host or cells: CHO cells; details: for remaining activity at 0.1 µM: CHO, Forskolin (5 μM) + compound 0.1 μM, read-out: Amount of cAMP production compared to control (ratio (%))
Target sequence in this assay (P34972 whole entry): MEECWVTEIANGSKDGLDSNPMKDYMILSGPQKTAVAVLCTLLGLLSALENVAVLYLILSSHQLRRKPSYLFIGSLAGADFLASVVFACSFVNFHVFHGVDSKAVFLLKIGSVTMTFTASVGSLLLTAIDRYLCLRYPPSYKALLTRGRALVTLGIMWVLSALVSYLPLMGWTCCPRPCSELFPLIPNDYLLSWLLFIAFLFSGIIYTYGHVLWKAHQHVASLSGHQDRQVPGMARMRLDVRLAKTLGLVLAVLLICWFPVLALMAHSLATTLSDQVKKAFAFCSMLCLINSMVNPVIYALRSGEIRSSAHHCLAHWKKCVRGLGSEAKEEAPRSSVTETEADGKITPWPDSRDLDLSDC

[2] = tested on: IgE-dependent allergic dermatitis
Procedure: (§1) Using a triphase dermatitis model that can be induced by antigen in mouse passively sensitizationed with IgE, the actions of CB2 inverse agonist and CB2 agonist were examined.
(§2) *Animal: 8 to 10 weeks-old Female BALB/c mouse (Japan SLC Inc.) was used.
(§3) Preparation of solvent: MC was dissolved in distilled water to prepare an aqueous 0.5% MC solution.
(§4) Anti-DNP IgE (antibody against DNP; Yamasa Corp.) was prepared to 15 μg/mL with physiological saline. 0.2 mL of the resulting solution was given through the caudal vein to the mouse.
(§5) Antigen preparation: 0.15% (w/v) of DNFB (2,4-dinitrofluorobenzene) was prepared in a mixed solution of acetone and olive oil (3:1, v/v) on needed basis.
(§6) Antigen application: 25 μl of the antigen solution was applied on each side of both of the ears 24 hours after the administration of the anti-DNP IgE.
(§7) From the next day of the antigen application to day 8 after the antigen application, 10 mL/kg test compound was orally administered once a day 9 times in total. On the day of antigen application, the test compound was administered one hour before the antigen application and the test compound was administered one hour before the measurement of the thickness of the ear on day 8 after the antigen application.
(§8) Before and 8 days after the antigen application, the thickness of the ear was measured with a dial thickness gauge (Mitutoyo Corp.). The difference between the value measured before the antigen application and at each time point was used as an index of swelling.
(§9) After the measurement of ear swelling, spleen and thymus were harvested to weigh their wet weights.

CB2 [3] = molecular target: T1, CB2; parameters: host or cells: CHO cells expressing CB2; details: CB2 expressing CHO cells; non-patent reference 3; cited from earlier work
Target sequence in this assay (P34972 whole entry, species assumed): as the sequence (P34972 whole entry) above

[4] = tested on: IgE-dependent allergic dermatitis; details: mouse, in vivo, po
Procedure: as §1, §2, §3, §4, §5, §6, §7, §8, §9

[5] = tested on: spontaneous scratching reaction; assay: spontaneous scratching reaction of NC mouse; type: in vivo; details: NC/Jic mice; oral once a day for 3 weeks; vs solvent control
Excerpt: Currently, NC mouse is used as an animal model of atopic dermatitis. No dermatitis or scratching action is observed when the mouse is kept in an environment under the control of atmospheric microorganisms (in SPF environment). However, when the mouse is kept in a conventional environment, scratching action together with the onset of dermatitis can be observed from about week 8 and the symptom progresses into chronic symptom (J. Dermatol. Sci., 25, 20-28, 2001).
Preparation of solvent: MC was dissolved in tap water to prepare an aqueous 0.5% (w/v) MC solution.
As positive controls, betamethasone valerate (Sigma) and tacrolimus hydrate (extracted from Prograf (Fujisawa Pharmaceutical Co., Ltd.)) were similarly prepared to 1 mg/mL. Betamethasone valerate is one of the adrenocorticosteroids that is considered to be effective for the treatment of atopic dermatitis. Tacrolimus hydrate is a therapeutic agent of atopic dermatitis which is known as an immunosuppressor as described above.
The mice (A) were taken away from the cage and the NC/Jic mice were used at the age of 16 weeks.
Breeding conditions: The mice were fed with solid feed CA-1 (CLEA JAPAN INC.) ad libitum and tap water as drinking water ad libitum, and kept at a temperature of 22±2° C. and a humidity of 55±10% under lighting from 8:00 a.m. to 20:00 p.m.
From 10 days before the start of the experiment, the number of scratching behavior with hind legs of the mice was visually counted (for 20 minutes; once daily) over 2 days or 3 days. Among the plural mice counted, mice with 50 or more average scratching movements per day were selected for use.
The behavior of the mice was filmed under unattended environment with a video camera to count the scratching motion with hind legs for one hour. […] This series of scratching motions was counted as one scratching movement, and all such scratching movements were counted irrespective of scratched sites. The measurement was done on the starting day of administration, and one day, 3, 6, 10, 13, 17 and 20 days after the start of administration. […]

antigen-induced asthma = assay: antigen-induced immediate type asthma, late-type asthma and airway hypersensitivity in guinea pigs; type: in vivo, guinea pig; details: oral, compound A 10, 30, 100 mg/kg, positive controls 30 mg/kg
Procedure: The test compound was further diluted to 20, 6 and 2 mg/mL on needed basis. As positive controls, 6 mg/mL pranlukast hydrate (extracted from Onon™ (Ono Pharmaceutical Co., Ltd.)) and 6 mg/mL prednisolone (Sigma) were similarly prepared.
Sensitization: Using an ultrasonic nebulizer (NE-U12; OMRON), a 6-weeks old male Hartley guinea pig (Kudo, Co., Ltd.) was continuously inhaled with 1% OVA (ovalbumin; Sigma)-containing physiological saline for 10 minutes per day for 8 consecutive days.
Antigen challenge: One week after the last sensitization, 2% OVA was similarly inhaled for 5 minutes. 24 hours before and one hour after the OVA challenge, metyrapone-containing physiological saline (Aldrich, 10 mg/mL) was administered intravenously and 30 minutes before the OVA induction, pyrilamine-containing physiological saline (Sigma, 10 mg/kg) was administered intraperitoneally.
During the 8 days of sensitization, the test compound was given one hour before the sensitization. On the day of the antigen challenge, the test compound was given one hour before the challenge. As solvent controls, the vehicle was similarly administered in accordance with OVA induction and physiological saline induction.
As positive controls, pranlukast hydrate was administered one hour before the challenge, while prednisolone was administered 16 hours and 2 hours before the challenge. The animals were fasted 16 to 18 hours before the oral administration.
Using total respiratory function analysis system (Pulmos-I, M.I.P.S. Company), the pre value was measured. Subsequently, specific airway resistance (hereinafter referred to as sRaw) per 100 breathes was measured one minute and 2, 4, 5, 6, 7 and 8 hours after the OVA challenge, and further once between 22 to 26 hours after the challenge, respectively. The average was used as sRaw at each measured time point. The increment ratio of sRaw was calculated by the following formula.
Increment ratio of sRaw (%)=[(sRaw at each measured time point −sRaw before the challenge)/(sRaw before the challenge)]×100
Twenty-two to 26 hours after the antigen challenge, each of 0.0625, 0.125, 0.25, 0.5, 1 and 2 mg/mL solutions of physiological saline and acetylcholine (hereinafter referred to as ACh) were sequentially inhaled for one minute, until the sRaw was 2-fold or more to the baseline sRaw (sRaw after inhalation of physiological saline). Based on the ACh concentration and the concentration-resistance curve of sRaw, the ACh concentration required for the sRaw to achieve 100% increase from the baseline sRaw, i.e., PC100ACh was determined.

[6] = tested on: DNFB-induced allergic dermatitis; assay: murine DNFB-induced allergic dermatitis model; type: in vivo, mouse; details: 24 hours after the fifth antigen application; oral dosing
Procedure: The model is produced by repeating antigen sensitization and induction in mouse to induce contact dermatitis that involves increase of IgE antibody titer, i.e., inflammation similar to atopic dermatitis (J. Allergy Clin. Immunol., 100 (6Pt2), 39-44, December 1997).
Furthermore, by dilution, 0.1 mg/mL and 0.01 mg/mL suspensions were prepared. In addition, as positive controls, 0.5 mg/mL, 0.2 mg/mL and 0.1 mg/mL solutions of prednisolone (Sigma) were similarly prepared.
During the period from the next day of the third antigen application to the next day of the fifth antigen application, 10 mL/kg of the above-described test compound was administered once a day 15 times in total.
The difference of thickness was used as an index of swelling. FIGS. 1 and 2 show the results of the measurement at the fourth and fifth antigen applications, together with the results of the positive controls.
24 hours after the fifth antigen application, the spleen was harvested from the mouse exsanguinated under anesthesia with ether. The wet weight of the spleen was measured.

[7] = 8 days after antigen application, oral dosing

CCCCC/C=C\C/C=C\C/C=C\C/C=C\CCCC(=O)O [AA, arachidonic acid]
time after which swelling disappeared (mouse ear; topical AA 1.25% (w/v)): 2 days
time of peak ear swelling after the application (mouse ear; topical application on ear): one
ear swelling induced by application on the ear (mouse ear; topical in acetone, 2-AG-E 1 or 10%, HU-308 10%, AA 1.25% (w/v)): swelling that reached a peak one hour after the application

CCCCCOc1c(OC)ccc2cc(C(=O)NCCN3CCOCC3)c(=O)[nH]c12 [B]
remaining activity at 0.1 µM (CB2 [1]): 430%

CCCCOc1c(OC)ccc2cc(C(=O)NCCc3ccc(F)cc3)c(=O)[nH]c12 [C]
remaining activity at 0.1 µM (CB2 [1]): 212%

CCCCC/C=C\C/C=C\C/C=C\C/C=C\CCCC(=O)OC(CO)CO [Compound 2-AG, 2-arachidonoylglycerol]
forskolin-stimulated cAMP production (CB2 [1]; hCB2-expressing CHO cells, statement in definitions): suppress the forskolin-stimulated cAMP production

CCCCCOc1c(OC)ccc2cc(C(=O)NCCc3ccncc3)c(=O)n(C)c12 [F]
remaining activity at 0.1 µM (CB2 [1]): 218%

CCCCCCC(C)(C)c1cc(OC)c([C@@H]2C=C(CO)[C@@H]3C[C@H]2C3(C)C)c(OC)c1 [HU-308]
wet weight of the spleen [2, 7]: Significant decrease
ear swelling, very late phase ([2]; 8 days after application, oral once a day, compound A 0.1, 1, 10 mg/kg, SR144528 0.1 mg/kg or higher, HU-308 10 and 50 mg/kg): no pharmacological effect was observed

CCCCCOc1c(OC)ccc2c1CC(=O)N(CCCN1CCOCC1)C2=O [I]
remaining activity at 0.1 µM (CB2 [1]): 125%

Cc1ccc(Cn2nc(C(=O)N[C@H]3C4(C)CCC(C4)C3(C)C)cc2-c2ccc(Cl)c(C)c2)cc1 (stereo partly shown) [SR144528]
ear swelling, very late phase ([2]; mouse, in vivo): significant effect
forskolin-stimulated cAMP production (CB2 [3]): elevate the production of cyclic adenosine-phosphate (cAMP)
wet weight of the spleen [4]: no apparent changes
wet weight of the thymus [4]: no apparent changes

CCCCC(=O)O[C@]1(C(=O)CO)[C@@H](C)C[C@H]2[C@@H]3CCC4=CC(=O)C=C[C@]4(C)[C@@]3(F)[C@@H](O)C[C@@]21C [betamethasone valerate]
number of scratching movements [5]: suppressed the number of scratching movements

C[C@]12C=CC(=O)C=C1CC[C@@H]1[C@@H]2[C@@H](O)C[C@@]2(C)[C@H]1CC[C@]2(O)C(=O)CO [prednisolone]
airway hypersensitivity (PC100ACh) (antigen-induced asthma; 22 to 26 hours after antigen challenge): suppressed
immediate type asthma response (sRaw immediately after antigen challenge) (antigen-induced asthma): suppressed
late asthmatic response (sRaw over 4 to 8 hours after antigen challenge) (antigen-induced asthma): suppressed
wet weight of the spleen [2, 7]: significant suppression
wet weight of the thymus [2, 7]: significant suppression
spleen wet weight [6]: decrease of spleen weight

C=CC[C@@H]1/C=C(\C)C[C@H](C)C[C@H](OC)[C@H]2O[C@@](O)(C(=O)C(=O)N3CCCC[C@H]3C(=O)O[C@H](/C(C)=C/[C@@H]3CC[C@@H](O)[C@H](OC)C3)[C@H](C)[C@@H](O)CC1=O)[C@H](C)C[C@@H]2OC [tacrolimus hydrate]
number of scratching movements [5]: suppressed the number of scratching movements
